Data published in patent US6531612B2, “Nitrile derivatives that inhibit cathepsin K” (Hoffman-La Roche Inc., priority 1999, dated 2003).

Experiments:
Type in all cases: biochemical
human liver cathepsin L = target: T1, human liver cathepsin L (Homo sapiens, UniProt P07711); assay: cathepsin L inhibitory activity; conditions: room temperature, enzyme 3 nM, substrate 5 μM, pH 5.5
T1 construct: using human liver cathepsin L (Calbiochem) at a final concentration of 3 nM; purchased Calbiochem; host or cells: human liver (tissue-derived)
Method: (§1) The inhibitory activity of the compounds against cathepsin K, S, L and B was tested at room temperature in 96-wells opaque white polystyrene plates (Costar). The cathepsin K inhibitory activity was tested as follows:
(§2) 5 μl of an inhibitor diluted in 5 mM sodium phosphate, NaCl 15 mM pH 7.4 containing 1% DMSO (final concentrations: 10−0.0001 μM) were preincubated for 10 min with 35 μl of human recombinant cathepsin K (final concentration: 1 nM) diluted in assay buffer (100 mM sodium acetate pH 5.5 containing 5 mM EDTA and 20 mM cysteine). After addition of 10 μl of the fluorogenic substrate Z-Leu-Arg-MCA diluted in assay buffer (final concentration: 5 μM), increase of fluorescence (excitation at 390 nm and emission at 460 nm) was measured for 7.5 min every 45 sec. The initial velocity (RFU/min) was derived from the linear fit of the 11 reading points.
The cathepsin L inhibitory activity was assayed under the same conditions as the cathepsin K inhibitory activity using human liver cathepsin L (Calbiochem) at a final concentration of 3 nM.
(§3) The results are given as IC50 values which denote the concentration of the inhibitor at which the enzymatic activity is inhibited by 50%. The IC50 values are determined from a linear regression curve from a logit-log plot.

[1] = target: Human recombinant cathepsin S (Homo sapiens, UniProt P25774); assay: cathepsin S inhibitory activity (fluorogenic substrate Z-Val-Val-Arg-MCA); conditions: room temperature, enzyme 0.5 nM, substrate 20 μM, pH 6.5
Method: as §1, §2
Cathepsin S inhibitory activity was assayed analogeously to the cathepsin K inhibitory activity, except that the buffer was 100 mM potassium phosphate, 5 mM EDTA, 5 mM DTT (freshly added), 0.01% Triton X-100, pH 6.5 and the fluorogenic substrate was Z-Val-Val-Arg-MCA (Bachem) (final concentration: 20 μM). Human recombinant cathepsin S (Wiederanders et al., Eur. J. Biochem. 1997, 250, 745-750) was used at a final concentration of 0.5 nM.
as §3

[2] = target: T2, human recombinant cathepsin K (Homo sapiens, UniProt P43235); assay: cathepsin K inhibitory activity (fluorogenic substrate Z-Leu-Arg-MCA); conditions: room temperature, enzyme 1 nM, substrate 5 μM, pH 5.5
T2 sequence (P43235 115-329): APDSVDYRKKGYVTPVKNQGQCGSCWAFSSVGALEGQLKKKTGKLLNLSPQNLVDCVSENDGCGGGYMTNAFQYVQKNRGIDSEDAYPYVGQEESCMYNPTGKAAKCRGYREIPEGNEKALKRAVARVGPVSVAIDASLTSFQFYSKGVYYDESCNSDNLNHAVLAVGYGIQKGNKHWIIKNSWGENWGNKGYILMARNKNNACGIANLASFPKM
Method: as §1, §2, §3

human liver cathepsin B = target: T3, human liver cathepsin B (Homo sapiens, UniProt P07858); assay: cathepsin B inhibitory activity; conditions: room temperature, enzyme 1 nM, substrate 5 μM, pH 5.5
T3 construct: using human liver cathepsin B (Calbiochem) at a final concentration of 1 nM; purchased Calbiochem; host or cells: human liver (tissue-derived)
Method: as §1, §2
The cathepsin B inhibitory activity was assayed under the same conditions as the cathepsin K inhibitory activity using human liver cathepsin B (Calbiochem) at a final concentration of 1 nM.
as §3

Chain of Human recombinant cathepsin S (P25774 115-331): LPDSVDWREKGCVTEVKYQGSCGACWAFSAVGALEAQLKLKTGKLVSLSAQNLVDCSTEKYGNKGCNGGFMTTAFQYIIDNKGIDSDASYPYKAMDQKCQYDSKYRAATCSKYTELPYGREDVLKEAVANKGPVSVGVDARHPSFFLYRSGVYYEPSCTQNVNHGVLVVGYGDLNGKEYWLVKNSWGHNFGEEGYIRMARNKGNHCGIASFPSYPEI
T1 sequence (P07711 114-333): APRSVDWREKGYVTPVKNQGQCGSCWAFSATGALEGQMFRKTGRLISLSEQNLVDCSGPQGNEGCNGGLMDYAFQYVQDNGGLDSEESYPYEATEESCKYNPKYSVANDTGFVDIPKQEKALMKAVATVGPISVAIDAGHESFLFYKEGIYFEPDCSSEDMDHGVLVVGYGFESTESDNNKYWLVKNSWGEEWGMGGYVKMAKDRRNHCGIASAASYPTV

Structure (SMILES)	IC50 (human liver cathepsin L) [nM]	IC50 [1] [nM]	IC50 [2] [nM]	IC50 (human liver cathepsin B) [nM]
N#CC(NC(=O)[C@@H]1CCCN1C(=O)OCc1ccccc1)c1ccc2c(c1)OCO2 (mixture of isomers) [10.9, (S)-2-[(R)- and (S)-(Benzo[l,3]dioxol-5-yl-cyano-methyl)-carbamoyl]-pyrrolidine-1-carboxylic acid benzyl ester]	> 10000	> 10000	14	9500
COc1ccc(C(C#N)NC(=O)[C@@H]2[C@H](C)CCN2C(=O)OCc2ccccc2)cc1OC (mixture of isomers) [10.11, (2S,3R)-2-{(R)- and (S)-[Cyano-(3,4-dimethoxy-phenyl)-methyl]-carbamoyl}-3-methyl-pyrrolidine-1-carboxylic acid benzyl ester]	> 10000	> 10000	68	600
COc1ccc(C(C#N)NC(=O)[C@@H]2CCCN2C(=S)NCc2ccco2)cc1OC (mixture of isomers) [10.14, (S)-1-[(Furan-2-ylmethyl)-thiocarbamoyl]-pyrrolidine-2-carboxylic acid [(R)- and (S)-cyano-(3,4-dimethoxy-phenyl)-methyl]-amide]	> 10000	> 10000	64	6200
Cc1ccccc1C(C#N)NC(=O)[C@@H]1CCCN1C(=O)OCc1ccccc1 (mixture of isomers) [10.20, (S)-2-[(R)- and (S)-(Cyano-o-tolyl-methyl)-carbamoyl]-pyrrolidine-1-carboxylic acid benzyl ester]	> 10000	> 10000	26	> 10000
N#CC(NC(=O)[C@@H]1CCCN1C(=O)OCc1ccccc1)c1cccc(Br)c1 (mixture of isomers) [10.22, (S)-2-{(R)- and (S)-[(3-Bromo-phenyl)-cyano-methyl]-carbamoyl}-pyrrolidine-1-carboxylic acid benzyl ester]	> 10000	> 10000	16	> 10000
COc1cc(C(C#N)NC(=O)[C@@H]2CCCN2C(=O)OCc2ccccc2)ccc1OCc1ccccc1 (mixture of isomers) [10.28, (S)-2-{(R)- and (S)-[(4-Benzyloxy-3-methoxy-phenyl)-cyano-methyl]-carbamoyl}-pyrrolidine-1-carboxylic acid benzyl ester]	> 10000	> 10000	45	> 10000
N#CC(NC(=O)[C@@H]1CCCN1C(=O)CCC1CCCC1)c1ccc2c(c1)OCO2 (mixture of isomers) [10.32, (S)-1-(3-Cyclopentyl-propionyl)-pyrrolidine-2-carboxylic acid ((R)- and (S)-benzo[l,3]dioxol-5-yl-cyano-methyl)-amide]	> 10000	> 10000	37	600
N#CC(NC(=O)[C@@H]1CCCN1C(=O)COCc1ccccc1)c1ccc2c(c1)OCO2 (mixture of isomers) [10.33, (S)-1-Benzyloxyacetyl-pyrrolidine-2-carboxylic acid ((R)- and (S)-benzo[1,3]dioxol-5-yl-cyano-methyl)-amide]	> 10000	> 10000	27	2000
N#C[C@H](NC(=O)[C@@H]1CCCN1C(=O)OCc1ccccc1)c1ccccc1 [10.2, (S)-2-[(R)-(Cyano-phenyl-methyl)-carbamoyl]-pyrrolidine-1-carboxylic acid benzyl ester]	> 10000	> 10000	46	2800
N#CC(NC(=O)[C@@H]1CCCN1C(=O)Cc1cccc(Br)c1)c1ccc2c(c1)OCO2 (stereo partly drawn) [11.1, (S)-1-[2-(3-Bromo-phenyl)-ethanoyl]-pyrrolidine-2-carboxylic acid (1-benzo[1,3]dioxol-5-yl-1-cyano-methyl)-amide]	7000	> 10000	15	2000
COc1ccc(C(C#N)NC(=O)[C@@H]2CCCN2C(=O)Cc2cccc(Br)c2)cc1OC (stereo partly drawn) [11.2, (S)-1-[2-(3-Bromo-phenyl)-ethanoyl]-pyrrolidine-2-carboxylic acid [1-cyano-1-(3,4-dimethoxy-phenyl)-methyl]-amide]	> 10000	> 10000	18	600
N#CC(NC(=O)[C@@H]1CCCN1C(=O)Cc1ccc(Br)cc1)c1ccc2c(c1)OCO2 (stereo partly drawn) [11.10, (S)-1-[2-(4-Bromo-phenyl)-ethanoyl]-pyrrolidine-2-carboxylic acid (1-benzo[1,3]dioxol-5-yl-1-cyano-methyl)-amide]	> 10000	> 10000	26	4000
